Each structure is given as a SMILES string. Square brackets hold non-standard residues; d marks the D form. Peptide text beside a SMILES is read from it. Aib = CC(C)(N)C(=O)O

For five molecules, EC50 results are on record in US11130793B2, “GLP-1/GLP-2 dual agonists” (Zealand Pharma A/S, priority 2016, dated 2021).

The target of one assay is T1, human GLP-2 receptor (Homo sapiens, UniProt O95838, D470N).
T1 sequence (O95838 1-553 D470N): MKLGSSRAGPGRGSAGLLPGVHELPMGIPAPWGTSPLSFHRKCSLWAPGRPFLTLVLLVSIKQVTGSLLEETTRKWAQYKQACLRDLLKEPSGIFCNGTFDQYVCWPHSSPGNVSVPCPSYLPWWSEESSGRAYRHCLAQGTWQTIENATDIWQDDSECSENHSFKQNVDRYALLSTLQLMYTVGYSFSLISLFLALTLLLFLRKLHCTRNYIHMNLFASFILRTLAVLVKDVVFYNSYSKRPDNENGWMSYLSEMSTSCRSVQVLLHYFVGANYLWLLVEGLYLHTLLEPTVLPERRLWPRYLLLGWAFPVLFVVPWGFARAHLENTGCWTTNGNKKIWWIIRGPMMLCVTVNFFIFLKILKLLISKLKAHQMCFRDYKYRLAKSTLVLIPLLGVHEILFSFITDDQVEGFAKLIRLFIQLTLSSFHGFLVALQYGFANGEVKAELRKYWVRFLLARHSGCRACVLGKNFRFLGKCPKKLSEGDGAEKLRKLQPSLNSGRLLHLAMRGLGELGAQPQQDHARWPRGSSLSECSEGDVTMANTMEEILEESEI
Briefly: GLP-2 receptor potency assay (cAMP AlphaScreen, HEK293 cells stably expressing GLP-2R). Format: cell-based. Conditions: cAMP response, HEK293 cells expressing human GLP-2R. An excerpt:
(§1) One useful in vitro assay for measuring GLP-1 and GLP-2 receptor activity is quantitation of cAMP, i.e. 3′-5′-cyclic adenosine monophosphate, which is a second messenger essential in many biological processes, and one of the most ubiquitous mechanisms for regulating cellular functions. […] Test compounds eliciting an increase in the intracellular level of cAMP can be tested in these assays, and the response normalized relative to a positive and negative control (vehicle) to calculate the EC50 and maximal response from the concentration response curve using the 4-parameter logistic (4PL) nonlinear model for curve fitting.
The hGLP2-R was purchased from MRC-geneservice, Babraham, Cambridge as an Image clone: 5363415 (11924-I17). For subcloning into a mammalian expression vector, primers for subcloning were obtained from DNA-Technology, Risskov, Denmark. The 5′ and 3′ primers used for the PCR reaction include terminal restriction sites for cloning and the context of the 5′ primer is modified to a Kozak consensus without changing the sequence of the product encoded by the ORF. A standard PCR reaction was run using Image clone 5363415 (11924-117) as a template with the above mentioned primers and Polymerase Herculase II Fusion in a total vol. of 50 μl. The generated PCR product was purified using GFX PCR and Gel band purification kit, digested with restriction enzymes and cloned into the mammalian expression vector using Rapid DNA Ligation Kit. Ligation reaction was transformed to XL10 Gold Ultracompetent cells and colonies were picked for DNA production using Endofree Plasmid maxi kit. Subsequent sequence analysis was conducted by MWG Eurofins, Germany.
HEK293 cells were transfected using the Lipofectamine PLUS transfection method. The day before transfection, HEK293 cells were seeded in two T75 flasks at a density of 2×10^6 cells/T75 flask in cell culturing medium without antibiotics. On the day of transfection, cells were washed with 1×DPBS and medium was replaced with Optimem to a volume of 5 mL/T75 flask before addition of Lipofectamine-plasmid complexes were added gently and drop wise to the cells in T75 flasks and replaced with growth medium after 3 hours and again to growth medium supplemented with 500 μg/mL G418 after 24 hours. Following 4 weeks in G418 selection, clones were picked and tested in a functional GLP-2 receptor potency assay as described below.
(§2) The cAMP AlphaScreen assay from Perkin Elmer was used to quantitate the cAMP response to activation of the GLP1 and GLP2 receptor, respectively. […] Data from test compounds eliciting an increase in the intracellular level of cAMP were normalized relative to the positive and negative control (vehicle) to calculate the EC50 and maximal response from the concentration response curve.

Another assay concerns the target T2, human GLP-1 receptor (Homo sapiens, UniProt P43220).
T2 construct: expressed in transfected cells
Briefly: GLP-1 receptor potency assay (cAMP AlphaScreen, HEK293 cells stably expressing GLP-1R). Format: cell-based. Conditions: cAMP response, HEK293 cells expressing human GLP-1R; read-out: EC50 GLP-1.
Text: as §1
The cDNA encoding the human glucagon-like peptide 1 receptor (GLP-1R) (primary accession number P43220) was cloned from the cDNA BC112126 (MGC:138331/IMAGE:8327594). The DNA encoding the GLP-1-R was amplified by PCR using primers encoding terminal restriction sites for subcloning. The 5′-end primers additionally encoded a near Kozak consensus sequence to ensure efficient translation. […] The PCR products encoding the GLP-1-R were subcloned into a mammalian expression vector containing a neomycin (G418) resistance marker. The mammalian expression vectors encoding the GLP-1-R were transfected into HEK293 cells by a standard calcium phosphate transfection method. 48 hours post-transfection, cells were seeded for limited dilution cloning and selected with 1 mg/ml G418 in the culture medium. Following 3 weeks in G418 selection clones were picked and tested in a functional GLP-1 receptor potency assay as described below.
as §2
(In general: In Alpha technology, singlet oxygen from a donor bead excites a nearby acceptor bead.)

T2 sequence (P43220 24-463): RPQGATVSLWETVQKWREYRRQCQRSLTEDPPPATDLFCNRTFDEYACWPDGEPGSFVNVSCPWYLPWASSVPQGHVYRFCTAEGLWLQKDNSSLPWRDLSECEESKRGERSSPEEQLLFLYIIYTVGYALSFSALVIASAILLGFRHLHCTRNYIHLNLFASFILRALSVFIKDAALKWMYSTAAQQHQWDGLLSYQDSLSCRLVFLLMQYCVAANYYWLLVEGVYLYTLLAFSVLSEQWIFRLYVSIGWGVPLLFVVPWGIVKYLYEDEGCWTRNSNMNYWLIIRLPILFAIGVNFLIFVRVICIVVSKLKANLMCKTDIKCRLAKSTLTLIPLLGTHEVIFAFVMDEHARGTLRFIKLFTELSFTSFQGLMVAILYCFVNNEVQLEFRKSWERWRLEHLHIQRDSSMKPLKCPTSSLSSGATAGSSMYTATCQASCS

As a reminder, the EC50 is the concentration at which the effect is half-maximal. Consider `CC[C@H](C)[C@H](NC(=O)[C@H](Cc1ccccc1)NC(=O)[C@H](CC(=O)O)NC(=O)[C@H](CCCNC(=N)N)NC(=O)[C@H](C)NC(=O)[C@H](C)NC(=O)[C@H](CCC(N)=O)NC(=O)[C@H](CCC(=O)O)NC(=O)[C@H](CC(=O)O)NC(=O)[C@H](CC(C)C)NC(=O)[C@@H](NC(=O)[C@@H](NC(=O)[C@H](C)NC(=O)[C@H](CC(C)C)NC(=O)[C@H](CCC(=O)O)NC(=O)[C@H](CO)NC(=O)[C@@H](NC(=O)[C@H](Cc1ccccc1)NC(=O)[C@H](CO)NC(=O)CNC(=O)[C@H](CCC(=O)O)NC(=O)C(C)(C)NC(=O)[C@@H](N)Cc1c[nH]cn1)[C@@H](C)O)[C@@H](C)O)[C@@H](C)CC)C(=O)N[C@@H](C)C(=O)N[C@@H](Cc1c[nH]c2ccccc12)C(=O)N[C@@H](CC(C)C)C(=O)N[C@@H](Cc1ccc(O)cc1)C(=O)N[C@@H](CCC(=O)O)C(=O)N[C@@H](Cc1c[nH]cn1)C(=O)N[C@@H](CCCCN)C(=O)N[C@H](C(=O)N[C@H](C(=O)N[C@@H](CC(=O)O)C(=O)O)[C@@H](C)O)[C@@H](C)CC` [Compound 23] (H-H[Aib]EGSFTSELATILDEQAARDFIAWLYEHKITD-OH), for which the EC50 at human GLP-2 receptor stood at 0.034 nM; at human GLP-1 receptor, 0.12 nM.
As for `CC[C@H](C)[C@H](NC(=O)[C@H](Cc1ccccc1)NC(=O)[C@H](CC(=O)O)NC(=O)[C@H](CCCNC(=N)N)NC(=O)[C@H](C)NC(=O)[C@H](C)NC(=O)[C@H](CCC(N)=O)NC(=O)[C@H](CCC(=O)O)NC(=O)[C@H](CC(=O)O)NC(=O)[C@H](CC(C)C)NC(=O)[C@@H](NC(=O)[C@@H](NC(=O)[C@H](C)NC(=O)[C@H](CC(C)C)NC(=O)[C@H](CCC(=O)O)NC(=O)[C@H](CO)NC(=O)[C@@H](NC(=O)[C@H](Cc1ccccc1)NC(=O)[C@@H](NC(=O)CNC(=O)[C@H](CCC(=O)O)NC(=O)C(C)(C)NC(=O)[C@@H](N)Cc1c[nH]cn1)[C@@H](C)O)[C@@H](C)O)[C@@H](C)O)[C@@H](C)CC)C(=O)N[C@@H](C)C(=O)N[C@@H](Cc1c[nH]c2ccccc12)C(=O)N[C@@H](CC(C)C)C(=O)N[C@H](C(=O)N[C@@H](CCCCN)C(=O)N[C@@H](Cc1c[nH]cn1)C(=O)N[C@@H](CCCCN)C(=O)N[C@H](C(=O)N[C@H](C(=O)N[C@@H](CC(=O)O)C(=O)O)[C@@H](C)O)[C@@H](C)CC)[C@@H](C)CC` [Compound 16] (H-H[Aib]EGTFTSELATILDEQAARDFIAWLIKHKITD-OH), the results for the EC50 on human GLP-2 receptor and at human GLP-1 receptor were 0.026 nM and 0.006 nM, respectively.
The like results for `CC[C@H](C)[C@H](NC(=O)[C@H](CC(C)C)NC(=O)[C@H](Cc1c[nH]c2ccccc12)NC(=O)[C@H](CC(N)=O)NC(=O)[C@@H](NC(=O)[C@H](Cc1ccccc1)NC(=O)[C@H](CC(=O)O)NC(=O)[C@H](CCCNC(=N)N)NC(=O)[C@H](C)NC(=O)[C@H](C)NC(=O)[C@H](CCC(N)=O)NC(=O)[C@H](CCC(=O)O)NC(=O)[C@H](CC(=O)O)NC(=O)[C@H](CC(C)C)NC(=O)[C@@H](NC(=O)[C@@H](NC(=O)[C@H](C)NC(=O)[C@H](CC(C)C)NC(=O)[C@H](CCC(=O)O)NC(=O)[C@H](CO)NC(=O)[C@@H](NC(=O)[C@H](Cc1ccccc1)NC(=O)[C@@H](NC(=O)CNC(=O)[C@H](CCC(=O)O)NC(=O)C(C)(C)NC(=O)[C@@H](N)Cc1c[nH]cn1)[C@@H](C)O)[C@@H](C)O)[C@@H](C)O)[C@@H](C)CC)[C@@H](C)CC)C(=O)N[C@@H](C)C(=O)N[C@@H](Cc1c[nH]cn1)C(=O)N[C@@H](CCCCN)C(=O)N[C@H](C(=O)N[C@H](C(=O)N[C@@H](CC(=O)O)C(=O)O)[C@@H](C)O)[C@@H](C)CC` [Compound 33] (H-H[Aib]EGTFTSELATILDEQAARDFINWLIAHKITD-OH) were, in that order, 0.041 nM and 0.004 nM.
`CC[C@H](C)[C@H](NC(=O)[C@H](CC(C)C)NC(=O)[C@H](Cc1c[nH]c2ccccc12)NC(=O)[C@H](C)NC(=O)[C@@H](NC(=O)[C@H](Cc1ccccc1)NC(=O)[C@H](CC(=O)O)NC(=O)[C@H](CCCNC(=N)N)NC(=O)[C@H](C)NC(=O)[C@H](C)NC(=O)[C@H](CCCCN)NC(=O)CNC(=O)[C@H](CC(=O)O)NC(=O)[C@H](CC(C)C)NC(=O)[C@@H](NC(=O)[C@@H](NC(=O)[C@H](C)NC(=O)[C@H](CC(C)C)NC(=O)[C@H](CCC(=O)O)NC(=O)[C@H](CO)NC(=O)[C@@H](NC(=O)[C@H](Cc1ccccc1)NC(=O)[C@@H](NC(=O)CNC(=O)[C@H](CCC(=O)O)NC(=O)C(C)(C)NC(=O)[C@@H](N)Cc1c[nH]cn1)[C@@H](C)O)[C@@H](C)O)[C@@H](C)O)[C@@H](C)CC)[C@@H](C)CC)C(=O)N[C@@H](C)C(=O)N[C@@H](Cc1c[nH]cn1)C(=O)N[C@@H](CCCCN)C(=O)N[C@H](C(=O)N[C@H](C(=O)N[C@@H](CC(=O)O)C(=O)O)[C@@H](C)O)[C@@H](C)CC` [Compound 11] (H-H[Aib]EGTFTSELATILDGKAARDFIAWLIAHKITD-OH): the EC50 on human GLP-2 receptor was 0.085 nM; on human GLP-1 receptor it was 0.011 nM.
The like results for `CC[C@H](C)[C@H](NC(=O)[C@H](Cc1ccccc1)NC(=O)[C@H](CC(=O)O)NC(=O)[C@H](CCCNC(=N)N)NC(=O)[C@H](C)NC(=O)[C@H](C)NC(=O)[C@H](CCC(N)=O)NC(=O)[C@H](CCC(=O)O)NC(=O)[C@H](CC(=O)O)NC(=O)[C@H](CC(C)C)NC(=O)[C@@H](NC(=O)[C@@H](NC(=O)[C@H](C)NC(=O)[C@H](CC(C)C)NC(=O)[C@H](CCC(=O)O)NC(=O)[C@H](CO)NC(=O)[C@@H](NC(=O)[C@H](Cc1ccccc1)NC(=O)[C@@H](NC(=O)CNC(=O)[C@H](CCC(=O)O)NC(=O)C(C)(C)NC(=O)[C@@H](N)Cc1c[nH]cn1)[C@@H](C)O)[C@@H](C)O)[C@@H](C)O)[C@@H](C)CC)C(=O)N[C@@H](CC(N)=O)C(=O)N[C@@H](Cc1c[nH]c2ccccc12)C(=O)N[C@@H](CC(C)C)C(=O)N[C@@H](CCCCN)C(=O)N[C@@H](CO)C(=O)N[C@@H](Cc1ccc(O)cc1)C(=O)N[C@@H](CCCCN)C(=O)N[C@H](C(=O)N[C@H](C(=O)N[C@@H](CC(=O)O)C(=O)O)[C@@H](C)O)[C@@H](C)CC` [Compound 36] (H-H[Aib]EGTFTSELATILDEQAARDFINWLKSYKITD-OH) were, in that order, 0.11 nM and 0.007 nM.
